From patent publication US20040023884A1, “Biologically active peptides from functional domains of bactericidal/permeability-increasing protein and uses thereof” (priority 1993, published 2004)
Entries after “also recorded” stand apart in the source; their conditions may differ.

Columns and labels:
[1] = test system: rough mutant E. coli J5 bacteria; assay: Radial diffusion bactericidal assay, E. coli J5; format: cell-based; conditions: for pmol added to well to achieve a 30 mm^2 bactericidal zone, E. coli J5 / bactericidal activity (in words): radial diffusion; for pmol added to well to achieve a 30 mm^2 bactericidal zone, E. coli J5: PROBIT analysis, E. coli J5 (rough); for bactericidal activity (in words): E. coli J5
How it was run: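 Log-phase bacteria (3 h at 37 °C in tryptic soy broth), washed in 10 mM sodium phosphate pH 7.4, were embedded at 4×10^6 CFU/mL in underlayer agarose. BPI proteolytic fragments (5 or 10 μL) went into 3 mm wells for 3 h at 37 °C, then agarose overlay and overnight 37 °C growth. Clear zones were measured by micrometer.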

[2] = test system: E. coli 0111:B4 (smooth) bacteria; assay: Radial diffusion bactericidal assay, E. coli 0111:B4; format: cell-based; conditions: radial diffusion; for pmol added to well to achieve a 30 mm^2 bactericidal zone, E. coli O111:B4: PROBIT analysis, E. coli O111:B4 (smooth)
Staphylococcus aureus = assay: Radial diffusion bactericidal assay, Staphylococcus aureus; format: cell-based
[3] = test system: L-form of S. aureus ATCC 19640; assay: Activity against L-forms of gram-positive bacteria; format: cell-based
Method: The bactericidal capacity of BPI peptides provided by the invention was also tested against Gram-positive bacteria (See Table VIII A). […] In addition, peptides were tested for their activity against L-forms of gram-positive bacteria, such as the L-form of S. aureus ATCC 19640.

[4] = 3H-heparin binding assay (affinity and capacity)
How it was run: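 Bound 3H-heparin was counted by liquid scintillation after 1 h incubation at 4 °C with fragments immobilised on PVDF-bottomed wells, then washing in blocking buffer. Signal was corrected for BSA-related background, and varying amounts of rBPI23 were used as positive control.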

E. coli 0113 LPS = assay: Limulus Amoebocyte Lysate (LAL) inhibition assay; format: biochemical
Method: BPI proteolytic fragments produced according to Example 1 were subjected to a Limulus Amoebocyte Lysate (LAL) inhibition assay to determine LPS binding properties of these fragments. Specifically, each of the fragments were mixed in Eppendorf tubes with a fixed concentration of E. coli 0113 LPS (4 ng/mL final concentration) and incubated at 37° C. for 3 hours with occasional shaking. Addition controls comprising rBPI23 at 0.05 μg/mL were also tested. Following incubation, 360 μL of Dulbecco's phosphate buffered saline (D-PBS; Grand Island Biological Co. (GIBCO), Long Island, N.Y.) were added per tube to obtain an LPS concentration of 200 pg/mL for the LAL assay. Each sample was then transferred into Immulon II strips (Dynatech, Chantilly, Va.) in volumes of 50 μl per well.
Limulus amoebocyte Lysate (Quantitative Chromogenic LAL kit, Whitaker Bioproducts, Inc., Walkersville, Md.) was added at 50 μL per well and the wells were incubated at room temperature for 25 minutes. Chromogenic substrate was then added at a volume of 100 μL per well and was well mixed. After incubation for 20 to 30 minutes at room temperature, the reaction was stopped with addition of 100 μL of 25% (v/v) acetic acid. Optical density at 405 nm was then measured in a multiplate reader (Model Vmax, […], Menlo Park, Calif.) with the results shown in FIG. 2 in terms of percent inhibition of LPS. In this Figure, the filled circle represents rBPI23; the open circle represents Asp-N fragment A3; the x represents Asp-N fragment A2, the filled square represents Asp-N fragment A4; the filled triangle represents Asp-N fragment A1A2; the open square represents Asp-N fragment A6a; the small open triangle represents CNBr fragment C3; and the small filled square represents CNBr fragment C1/C5.

E. coli strain 07-K1 = assay: Radial diffusion bactericidal assay, E. coli 07-K1; format: cell-based; conditions: FIG. 10c
Method: BPI proteolytic fragments produced according to Example 1 were screened for bactericidal effects using rough mutant E. coli J5 bacteria in a radial diffusion assay. Specifically, an overnight culture of E. coli J5 was diluted 1:50 into fresh tryptic soy broth and incubated for 3 hours at 37° C. to attain log phase growth of the culture. Bacteria were then pelleted at 3,000 rpm for 5 minutes in a Sorvall RT6000B centrifuge (Sorvall Instruments, Newton, Conn.). 5 mL of 10 mM sodium phosphate buffer (pH 7.4) was added and the preparation was re-pelleted. […] The bacteria were diluted to 4×10^6 CFU/mL in 10 mL of molten underlayer agarose (at approximately 45° C.) and inverted repeatedly to mix in 15 mL polypropylene tubes conventionally used for this purpose.
The entire contents of such tubes were then poured into a level square petri dish and distributed evenly by rocking the dish side-to-side. […] A series of wells were then punched into the hardened agarose using a sterile 3 mm punch attached to a vacuum apparatus. The punch was sterilized with 100% alcohol and allowed to air dry prior to use to avoid contaminating the bacterial culture.
5 or 10 μL of each of the BPI fragments were carefully pipetted into each well. As a negative control, dilution buffer (pH 8.3) was added to a separate well, and rBPI23 at concentrations of 5 μg/mL and 1 μg/mL were also added as positive controls. Each plate was incubated at 37° C. for 3 hours, and then 10 mL of molten overlayer agarose (at approximately 45° C.) was added into the level petri dish, allowed to harden and incubated overnight at 37° C. […] The bacterial zones were measured with a micrometer.
Additional experiments were performed using various other bacteria as target cells to examine the range of bactericidal killing of these BPI functional domain peptides.

Klebsiella pneumoniae = assay: Radial diffusion bactericidal assay, Klebsiella pneumoniae; format: cell-based
Pseudomonas aeruginosa = assay: Radial diffusion bactericidal assay, Pseudomonas aeruginosa; format: cell-based; conditions: FIG. 11a; up to about 2000 pmol
E. coli O18:K1:H7 = assay: Radial diffusion bactericidal assay, E. coli O18:K1:H7; format: cell-based; conditions: FIG. 11b; up to about 2000 pmol
E. coli O75 = assay: Radial diffusion bactericidal assay, E. coli O75; format: cell-based; conditions: FIG. 11d; up to about 2000 pmol
[5] = In vitro heparin-mediated lengthening of APTT / clotting time of heparinized plasma; format: biochemical, human
Method: In vitro, the effect of BPI combination functional domain peptides was determined on heparin-mediated lengthening of activated partial […] (APTT). The APTT is lengthened by the presence of endogenous or exogenous inhibitors of thrombin formation, such as therapeutically administered heparin. Thus, agents which neutralize the anti-coagulant effects of heparin will reduce the APTT measured by the test. Citrated human plasma (200 μL) was incubated for 1 minute at 37° C. with either 15 μL of diluent (0.15 M NaCl, 0.1 M Tris-HCl, pH 7.4) or 15 μL of the diluent also containing 25 μg/mL heparin (187 units/mg). Various concentrations (from 0.0 to 56 μg/mL) of rBPI23, rBPI21Δcys, or BPI combination peptides BPI.29 (the DIII homodimer) and BPI.30 (heterodimer DII+DIII) in a volume of 15 μL were added, followed immediately by 100 μL of thrombin reagent (Catalog No. 845-4, Sigma Chemical Co., St. Louis. MO). Clotting time ([…]) was measured using a BBL Fibrometer (Becton Dickenson Microbiology Systems, Cockeysville, Md.). […] FIG. 12e illustrates the results obtained with BPI.30 on a non-log scale.

[6] = In vivo APTT in heparinized rats; set-up: species or system Sprague-Dawley rats; conditions: 100 U/kg heparin i.v., test protein 5 minutes later, blood 2 minutes after
Method: The in vivo effect of exemplary BPI combination peptides on APTT in heparinized rats was determined and compared with the in vivo effect of rBPI23. APTT is lengthened by the presence of endogenous or exogenous inhibitors of thrombin formation, such as therapeutically administered heparin. Agents which neutralize the anti-coagulant effects of heparin will reduce the APTT as measured by this test. Sprague-Dawley rats housed under NIH guidelines were administered with 100 U/kg heparin by bolus intravenous injections via the animals' tail vein followed 5 minutes later by administration of varying amounts of test or control protein as compared with rBPI23. The APTT was then determined from blood samples collected from the abdominal aorta 2 minutes after the administration of the test or control protein. The APTT of untreated animals, as well as animals treated only with a BPI peptide, was also determined.

[7] = test system: LPS-stimulated NO production by RAW 264.7 cells; assay: LPS-stimulated NO production by RAW 264.7 cells; format: cell-based, mouse
Method: An additional LPS neutralization screening assay for BPI functional domain peptides was developed using an assay for NO production in mouse cells treated with LPS (see Lorsbach et al., 1993, J. Biol. Chem. 268: 1908-1913). In this assay, mouse RAW 264.7 cells (ATCC Accession No. TIB71) were treated with bacterial LPS. The cells were incubated in 96-well plates and stimulated for 2 hours with E. coli 0113 LPS or zymosan, in the presence or absence of _-interferon, rLBP, fetal bovine serum (FBS) or normal human serum (NHS), or rBPI21Δcys. After this incubation, the cells were washed with fresh media and incubated overnight in media containing 10% FCS. The NO released from the cells accumulated in the media and spontaneously converted to nitrite. This nitrite was assayed in situ by the Griess reaction, as follows. The nitrite was reacted with the primary amine of an added sulfanilamide and formed a diazonium salt. This salt was then reacted with added naphthylethylenediamine to form a red azo-dyc. The Griess reaction was performed at room temperature in about 10 minutes. The amount of produced NO was estimated from a standard curve of Griess reaction products determined spectrophotometrically as Absorbance at a wavelength of 550 nm.

IKISGKWKAQKRKLK [BPI.120]
pmol added to well to achieve a 30 mm^2 bactericidal zone, E. coli J5 [1]: b (no detectable activity up to 5 μg/well)
pmol added to well to achieve a 30 mm^2 bactericidal zone, E. coli O111:B4 [2]: b (no detectable activity up to 5 μg/well)
pmol added to well to achieve a 30 mm^2 bactericidal zone, S. aureus (Staphylococcus aureus; radial diffusion, PROBIT analysis, S. aureus): b (no detectable activity up to 5 μg/well)
activity against L-form bacteria (in words) [3]: active against these L-form bacteria

KWKAQKRFLK [BPI.8]
bactericidal activity (in words) [1]: little to no bactericidal activity; also recorded: no detectable bactericidal activity against E. coli J5 cells at concentrations of 1000 μg/mL; also recorded: little or no bactericidal activity
pmol added to well to achieve a 30 mm^2 bactericidal zone, E. coli J5 [1]: 25,695.10 pmol
heparin binding activity (in words) [4]: little or no heparin binding activity
heparin binding capacity (in words) [4]: low heparin binding capacity
Heparin Capacity ([4]; heparin bound at saturation): 92.2 ng
Kd ([4]; read-out: Heparin Affinity): 574 nM
LAL / LPS inhibition activity (in words) (E. coli 0113 LPS): no significant LPS inhibition activity
bactericidal activity (in words) ([2]; E. coli 0111:B4): little to no bactericidal activity
pmol added to well to achieve a 30 mm^2 bactericidal zone, E. coli O111:B4 [2]: b (no detectable activity up to 5 μg/well)
bactericidal activity (in words) (E. coli strain 07-K1): low levels of bactericidal activity
bactericidal activity (in words) (Klebsiella pneumoniae; FIG. 11c, up to about 2000 pmol): no bactericidal activity
bactericidal activity (in words) (Klebsiella pneumoniae; FIG. 10d): no bactericidal activity at concentrations of 800 μg/mL
bactericidal activity (in words) (Staphylococcus aureus; FIG. 10e): no bactericidal activity at concentrations of 800 μg/mL
bactericidal activity (in words) (Pseudomonas aeruginosa): no bactericidal activity
bactericidal activity (in words) (E. coli O18:K1:H7): no bactericidal activity
bactericidal activity (in words) (E. coli O75): no bactericidal activity

B1: rBPI23: recombinant 23 kD amino-terminal fragment, approximately the first 199 amino acid residues of human BPI (protein)
chain: VNPGVVVRISQKGLDYASQQGTAALQKELKRIKIPDYSDSFKIKHLGKGHYSFYSMDIREFQLPSSQISMVPNVGLKFSISNANIKISGKWKAQKRFLKMSGNFDLSIEGMSISADLKLGSNPTSGKPTITCSSCSSHINSVHVHISKSKVGWLIQLFHKKIESALRN
lowest amount with measurable bactericidal activity [1]: 0.75 pmol/well
bactericidal activity (in words) [1]: showed bactericidal activity
cpm ^3H-Heparin bound ([4]; 100 picomoles of each fragment per well, saturating 3H-heparin 20 μg/mL, mean of duplicate wells ± range): 51,222 ± 1,808 cpm
IC50 (E. coli 0113 LPS; read-out: IC50 of inhibition of the LPS-induced LAL reaction): 9 nM
bactericidal activity (in words) (E. coli strain 07-K1): no bactericidal activity at concentrations of 100 μg/mL; also recorded: low bactericidal activity even at concentrations of 1000 μg/mL
effect on the clotting time of heparinized blood (in words) ([5]; FIG. 12g): smaller effect
effect on heparin-mediated lengthening of APTT (in words) ([5]; citrated human plasma, 25 μg/mL heparin, 0.0 to 56 μg/mL): inhibits the heparin-mediated lengthening of APTT
APTT in heparinized rats (in words) [6]: administration of about 5 mg/kg results in a APTT of the heparinized and BPI-treated animals that is almost the same as the untreated control animals
IC50 of inhibition of LPS-stimulated NO production [7]: 0.03 to 0.1 µg/mL
